According to PubChem BioAssay AID1259411 (Chemical Carcinogenesis Research Information System (CCRIS), 2018):
Activity calls are given as the source filed them. No rule for the calls is given here.

Tested on: rodent carcinogenicity bioassays, tumor incidence
Test: CCRIS carcinogenicity studies
Method in brief: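 Archive of carcinogenicity, mutagenicity, tumor promotion and tumor inhibition results drawn from journals, NCI reports and other sources, expert-reviewed; covers 1985-2011 and is no longer updated.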

O=[N+]([O-])c1cc2c3c(ccc2c2ccccc12)[C@H](O)[C@@H](O)C=C3
carcinogen call (Species: MOUSE, Strain/Sex: SWISS/FEMALE, Route: INTRAPERITONEAL, Dose: 0, 100 NMOL (TOTAL DOSE) 1/7, 2/7 AND 4/7 ADMINISTERED ON DAYS 1, 8 AND 15 OF LIFE RESPECTIVELY (STUDY DURATION: 32 WK), Tumor Site: Type of Lesion: LUNG: TUMOR): active; positive | carcinogen call (Species: MOUSE, Strain/Sex: SWISS/MALE, Route: INTRAPERITONEAL, Dose: 0, 100 NMOL (TOTAL DOSE) 1/7, 2/7 AND 4/7 ADMINISTERED ON DAYS 1, 8 AND 15 OF LIFE RESPECTIVELY (STUDY DURATION: 32 WK), Tumor Site: Type of Lesion: LUNG: TUMOR, LIVER: TUMOR): active; positive

C1CN1c1nc(N2CC2)nc(N2CC2)n1
carcinogen call (Species: MOUSE, Route: INTRAPERITONEAL, Tumor Site: Type of Lesion: OVARIES, LUNG, THYMUS GLAND, Tumor Site: Type of Lesion: OVARIES, LUNG, THYMUS GLAND): active; positive

CNC(=O)ON=C(SC)C(=O)N(C)C
carcinogen call (Species: MOUSE, Strain/Sex: CD-1/FEMALE, Route: ORAL, Dose: 0, 25, 50, 75 PPM IN DIET FOR 2 YR (STUDY DURATION: 2 YR), Dose: 0, 25, 50, 75 PPM IN DIET FOR 2 YR (STUDY DURATION: 2 YR)): inactive; negative | carcinogen call (Species: MOUSE, Strain/Sex: CD-1/MALE, Route: ORAL, Dose: 0, 25, 50, 75 PPM IN DIET FOR 2 YR (STUDY DURATION: 2 YR), Dose: 0, 25, 50, 75 PPM IN DIET FOR 2 YR (STUDY DURATION: 2 YR)): inactive; negative | carcinogen call (Species: RAT, Strain/Sex: CRL:CD/FEMALE, Route: ORAL, Dose: 0, 50, 100, 150 PPM IN DIET FOR 2 YR (STUDY DURATION: 2 YR), Dose: 0, 50, 100, 150 PPM IN DIET FOR 2 YR (STUDY DURATION: 2 YR)): inactive; negative | carcinogen call (Species: RAT, Strain/Sex: CRL:CD/MALE, Route: ORAL, Dose: 0, 50, 100, 150 PPM IN DIET FOR 2 YR (STUDY DURATION: 2 YR), Dose: 0, 50, 100, 150 PPM IN DIET FOR 2 YR (STUDY DURATION: 2 YR)): inactive; negative

CN(C)CCOc1ccc(/C(=C(/CCCl)c2ccccc2)c2ccccc2)cc1
carcinogen call (Species: RAT, Strain/Sex: SPRAGUE-DAWLEY/FEMALE, Route: GAVAGE, Dose: 0, 12, 24 MG/KG IN 0.5% CARBOXYMETHYLCELLULOSE 1/D 7 D/WK FOR UP TO 12 MO (STUDY DURATION: 15 MO), Dose: 0, 12, 24 MG/KG IN 0.5% CARBOXYMETHYLCELLULOSE 1/D 7 D/WK FOR UP TO 12 MO (STUDY DURATION: 15 MO)): inactive; negative | carcinogen call (Species: RAT, Strain/Sex: SPRAGUE-DAWLEY/FEMALE, Route: ORAL, Dose: 0, 0.12, 1.2, 5, 12 MG/KG/D IN DIET FOR DURATION OF STUDY (STUDY DURATION: 104 WK), Dose: 0, 0.12, 1.2, 5, 12 MG/KG/D IN DIET FOR DURATION OF STUDY (STUDY DURATION: 104 WK)): inactive; negative | carcinogen call (Species: RAT, Strain/Sex: SPRAGUE-DAWLEY/MALE, Route: ORAL, Dose: 0, 0.12, 1.2, 5, 12 MG/KG/D IN DIET FOR DURATION OF STUDY (STUDY DURATION: 104 WK), Dose: 0, 0.12, 1.2, 5, 12 MG/KG/D IN DIET FOR DURATION OF STUDY (STUDY DURATION: 104 WK)): inactive; negative

c1ccc2c(c1)Oc1ccccc1O2
carcinogen call (Species: MOUSE, Strain/Sex: B6C3F1/FEMALE, Route: ORAL, Dose: 0, 5000, 10000 PPM IN DIET, Dose: 0, 5000, 10000 PPM IN DIET): inactive; negative | carcinogen call (Species: MOUSE, Strain/Sex: B6C3F1/MALE, Route: ORAL, Dose: 0, 5000, 10000 PPM IN DIET, Dose: 0, 5000, 10000 PPM IN DIET): inactive; negative | carcinogen call (Species: RAT, Strain/Sex: OSBORNE-MENDEL/FEMALE, Route: ORAL, Dose: 0, 5000, 10000 PPM IN DIET, Dose: 0, 5000, 10000 PPM IN DIET): inactive; negative | carcinogen call (Species: RAT, Strain/Sex: OSBORNE-MENDEL/MALE, Route: ORAL, Dose: 0, 5000, 10000 PPM IN DIET, Dose: 0, 5000, 10000 PPM IN DIET): inactive; negative

CCCCN(N=O)C(=O)CCC(=O)OCC
carcinogen call (Species: RAT, Strain/Sex: F344/MALE,FEMALE, Route: SUBCUTANEOUS, Dose: 38 UMOL/KG IN OLIVE OIL 1/WK FOR 10 WK, Tumor Site: Type of Lesion: INJECTION SITE: MALIGNANT FIBROUS HISTIOCYTOMA): active; positive

N#[N+]c1ccc(O)cc1
carcinogen call (Species: MOUSE, Strain/Sex: SWISS/FEMALE, Route: SUBCUTANEOUS, Dose: 0, 2 UG 1/WK FOR 36 WK (STUDY DURATION: 120 WK), Tumor Site: Type of Lesion: SUBCUTANEOUS TISSUE: TUMOR): active; positive | carcinogen call (Species: MOUSE, Strain/Sex: SWISS/FEMALE, Route: SUBCUTANEOUS, Dose: 0, 10 UG 1/WK FOR 2 WK (STUDY DURATION: 130 WK)): inactive; negative | carcinogen call (Species: MOUSE, Strain/Sex: SWISS/MALE, Route: SUBCUTANEOUS, Dose: 0, 2 UG 1/WK FOR 36 WK (STUDY DURATION: 110 WK), Tumor Site: Type of Lesion: SUBCUTANEOUS TISSUE: TUMOR): active; positive | carcinogen call (Species: MOUSE, Strain/Sex: SWISS/MALE, Route: SUBCUTANEOUS, Dose: 0, 10 UG 1/WK FOR 2 WK (STUDY DURATION: 130 WK)): inactive; negative

O[C@@H]1[C@@H]2O[C@@H]2C=C[C@H]1O
carcinogen call (Species: MOUSE, Strain/Sex: SWISS/FEMALE, Route: INTRAPERITONEAL, Dose: 0, 2.7, 13.7 UMOL ADMINISTERED AS 3 UNEQUAL DOSES (1/7, 2/7, AND 4/7 OF THE TOTAL DOSE) OVER A 2-WK PERIOD (STUDY DURATI, Dose: 0, 2.7, 13.7 UMOL ADMINISTERED AS 3 UNEQUAL DOSES (1/7, 2/7, AND 4/7 OF THE TOTAL DOSE) OVER A 2-WK PERIOD (STUDY DURATI, Tumor Site: Type of Lesion: LUNG: ADENOMA): active; positive | carcinogen call (Species: MOUSE, Strain/Sex: SWISS/FEMALE, Route: INTRAPERITONEAL, Dose: 0, 13.7 UMOL ADMINISTERED AS 3 UNEQUAL DOSES (1/7, 2/7, AND 4/7 OF THE TOTAL DOSE) OVER A 2-WK PERIOD (STUDY DURATION: 2, Tumor Site: Type of Lesion: LUNG: ADENOMA): active; positive | carcinogen call (Species: MOUSE, Strain/Sex: SWISS/MALE, Route: INTRAPERITONEAL, Dose: 0, 2.7, 13.7 UMOL ADMINISTERED AS 3 UNEQUAL DOSES (1/7, 2/7, AND 4/7 OF THE TOTAL DOSE) OVER A 2-WK PERIOD (STUDY DURATI, Dose: 0, 2.7, 13.7 UMOL ADMINISTERED AS 3 UNEQUAL DOSES (1/7, 2/7, AND 4/7 OF THE TOTAL DOSE) OVER A 2-WK PERIOD (STUDY DURATI, Tumor Site: Type of Lesion: LUNG: ADENOMA): active; positive | carcinogen call (Species: MOUSE, Strain/Sex: SWISS/MALE, Route: INTRAPERITONEAL, Dose: 0, 13.7 UMOL ADMINISTERED AS 3 UNEQUAL DOSES (1/7, 2/7, AND 4/7 OF THE TOTAL DOSE) OVER A 2-WK PERIOD (STUDY DURATION: 2, Tumor Site: Type of Lesion: LUNG: ADENOMA): active; positive

O=C1OC(c2ccc(O)cc2)(c2ccc(O)cc2)c2ccccc21
carcinogen call (Species: MOUSE, Strain/Sex: B6C3F1/FEMALE, Route: ORAL, Dose: 0, 3000, 6000, 12000 PPM IN DIET FOR 2 YR (STUDY DURATION: 2 YR), Dose: 0, 3000, 6000, 12000 PPM IN DIET FOR 2 YR (STUDY DURATION: 2 YR), Tumor Site: Type of Lesion: OVARY: BENIGN SEX-CORD STROMAL TUMOR, LIVER: HISTIOCYTIC SARCOMA, LYMPHATIC SYSTEM: MALIGNANT LYMPHOMA, MALIGNANT LYMPHO, Tumor Site: Type of Lesion: OVARY: BENIGN SEX-CORD STROMAL TUMOR, LIVER: HISTIOCYTIC SARCOMA, LYMPHATIC SYSTEM: MALIGNANT LYMPHOMA, MALIGNANT LYMPHO): active; positive | carcinogen call (Species: MOUSE, Strain/Sex: B6C3F1/MALE, Route: ORAL, Dose: 0, 3000, 6000, 12000 PPM IN DIET FOR 2 YR (STUDY DURATION: 2 YR), Dose: 0, 3000, 6000, 12000 PPM IN DIET FOR 2 YR (STUDY DURATION: 2 YR), Tumor Site: Type of Lesion: LIVER: HISTIOCYTIC SARCOMA, LYMPHATIC SYSTEM: MALIGNANT LYMPHOMA (THYMIC ORIGIN)): active; positive | carcinogen call (Species: RAT, Strain/Sex: F344/FEMALE, Route: ORAL, Dose: 0, 12000, 25000, 50000 PPM IN DIET FOR 2 YR (STUDY DURATION: 2 YR), Dose: 0, 12000, 25000, 50000 PPM IN DIET FOR 2 YR (STUDY DURATION: 2 YR), Tumor Site: Type of Lesion: ADRENAL MEDULLA: BENIGN PHEOCHROMOCYTOMA, BENIGN OR MALIGNANT PHEOCHROMOCYTOMA): active; positive | carcinogen call (Species: RAT, Strain/Sex: F344/MALE, Route: ORAL, Dose: 0, 12000, 25000, 50000 PPM IN DIET FOR 2 YR (STUDY DURATION: 2 YR), Dose: 0, 12000, 25000, 50000 PPM IN DIET FOR 2 YR (STUDY DURATION: 2 YR), Tumor Site: Type of Lesion: ADRENAL MEDULLA: BENIGN PHEOCHROMOCYTOMA, KIDNEY(RENAL TUBULE): ADENOMA, ADENOMA OR CARCINOMA): active; positive
